≈ marks a conversion by molar mass, not a printed value. Calls of active or inactive are those of the source. No cut-off for these calls is given here.
Legend:
Klebsiella pneumoniae [1] = test: Antibacterial activity against Klebsiella pneumoniae ATCC 16425 after 24 hrs by serial dilution method; type: functional; settings: ATCC 16425, 24 h
Salmonella typhi = test: Antibacterial activity against Salmonella typhi ATCC 25021 after 24 hrs by serial dilution method; type: functional, Salmonella enterica subsp. enterica serovar Typhi; settings: Salmonella enterica, ATCC 25021, 24 h
Candida albicans = test: Antifungal activity against Candida albicans ATCC 3430 after 72 to 96 hrs by serial dilution method; type: functional
Bacillus subtilis [2] = test: Antibacterial activity against Bacillus subtilis ATCC 530 after 24 hrs by serial dilution method; type: functional; settings: ATCC 530, 24 h
Rhizopus = test: Antifungal activity against Rhizopus species ATCC 2842 after 72 to 96 hrs by serial dilution method; type: functional
Cryptococcus neoformans = test: Antifungal activity against Cryptococcus neoformans ATCC 3235 after 72 to 96 hrs by serial dilution method; type: functional
Escherichia coli [3] = test: Antibacterial activity against Escherichia coli ATCC 26032 after 24 hrs by serial dilution method; type: functional; settings: ATCC 26032, 24 h
Aspergillus flavus = test: Antifungal activity against Aspergillus flavus ATCC 525 after 72 to 96 hrs by serial dilution method; type: functional
Aspergillus niger [4] = test: Antifungal activity against Aspergillus niger ATCC 635 after 72 to 96 hrs by serial dilution method; type: functional
Staphylococcus aureus = test: Antibacterial activity against Staphylococcus aureus ATCC 25930 after 24 hrs by serial dilution method; type: functional; settings: ATCC 25930, 24 h
Aspergillus niger [5] = test: Antifungal activity against Aspergillus niger ATCC 635 at 200 ug/ml after 72 to 96 hrs by serial dilution method; type: functional, organism-based
Escherichia coli [6] = test: Antibacterial activity against Escherichia coli ATCC 26032 at 200 ug/ml after 24 hrs by serial dilution method; type: functional, organism-based
Klebsiella pneumoniae [7] = test: Antibacterial activity against Klebsiella pneumoniae ATCC 16425 at 200 ug/ml after 24 hrs by serial dilution method; type: functional, organism-based
Bacillus subtilis [8] = test: Antibacterial activity against Bacillus subtilis ATCC 530 at 200 ug/ml after 24 hrs by serial dilution method; type: functional, organism-based

Structure (SMILES) | MIC (Klebsiella pneumoniae [1]) [µg/mL] | MIC (Salmonella typhi) [µg/mL] | MIC (Candida albicans) [µg/mL] | MIC (Bacillus subtilis [2]) [µg/mL] | MIC (Rhizopus) [µg/mL] | MIC (Cryptococcus neoformans) [µg/mL] | MIC (Escherichia coli [3]) [µg/mL] | MIC (Aspergillus flavus) [µg/mL] | MIC (Aspergillus niger [4]) [µg/mL] | MIC (Staphylococcus aureus) [µg/mL] | inhibition (Aspergillus niger [5]) | inhibition (Escherichia coli [6]) | inhibition (Klebsiella pneumoniae [7]) | inhibition (Bacillus subtilis [8])
CC(=O)NC1=NN(C(C)=O)C2(S1)C1CCCC2C(c2ccc(C)cc2)NC1c1ccc(C)cc1 (stereo not given) | 12.5 (≈ 26.2 µM) | 100 (≈ 210 µM) | 25 (≈ 52.4 µM) | 12.5 (≈ 26.2 µM) | 25 (≈ 52.4 µM) | 50 (≈ 105 µM) | 100 (≈ 210 µM) | 12.5 (≈ 26.2 µM) | 50 (≈ 105 µM) | 25 (≈ 52.4 µM) |  |  |  | 
CCC(=O)NC1=NN(C(=O)CC)C2(S1)C1CCCC2C(c2ccc(F)cc2)NC1c1ccc(F)cc1 (stereo not given) | 25 (≈ 48.8 µM) | 6.25 (≈ 12.2 µM) | 6.25 (≈ 12.2 µM) | 6.25 (≈ 12.2 µM) | 6.25 (≈ 12.2 µM) | 25 (≈ 48.8 µM) | 12.5 (≈ 24.4 µM) | 6.25 (≈ 12.2 µM) | 12.5 (≈ 24.4 µM) | 25 (≈ 48.8 µM) |  |  |  | 
COc1ccc(C2C3CCCC(C(c4ccc(OC)cc4)N2C(C)=O)C32SC(NC(C)=O)=NN2C(C)=O)cc1 (stereo not given) | 25 (≈ 45.4 µM) | 50 (≈ 90.8 µM) | 25 (≈ 45.4 µM) | 50 (≈ 90.8 µM) | 100 (≈ 182 µM) | 25 (≈ 45.4 µM) | 50 (≈ 90.8 µM) | 12.5 (≈ 22.7 µM) |  | 25 (≈ 45.4 µM) | inactive |  |  | 
C[C@@H]1[C@H](O)[C@@H](C)/C=C/C=C/C=C/C=C/C=C/C=C/C=C/[C@H](O[C@@H]2O[C@H](C)[C@@H](O)[C@H](N)[C@@H]2O)C[C@@H]2O[C@](O)(C[C@@H](O)C[C@@H](O)[C@H](O)CC[C@@H](O)C[C@@H](O)CC(=O)O[C@H]1C)C[C@H](O)[C@H]2C(=O)O [AMPHOTERICIN B] |  |  | 25 (≈ 27.1 µM) |  | 25 (≈ 27.1 µM) | 25 (≈ 27.1 µM) |  | 50 (≈ 54.1 µM) | 50 (≈ 54.1 µM) |  |  |  |  | 
CCC(=O)NC1=NN(C(=O)CC)C2(S1)C1CCCC2C(c2cccc(F)c2)NC1c1cccc(F)c1 (stereo not given) | 50 (≈ 97.5 µM) | 6.25 (≈ 12.2 µM) | 25 (≈ 48.8 µM) | 6.25 (≈ 12.2 µM) | 25 (≈ 48.8 µM) | 25 (≈ 48.8 µM) | 6.25 (≈ 12.2 µM) | 50 (≈ 97.5 µM) | 12.5 (≈ 24.4 µM) | 100 (≈ 195 µM) |  |  |  | 
COc1cccc(C2NC(c3cccc(OC)c3)C3CCCC2C32SC(NC(C)=O)=NN2C(C)=O)c1 (stereo not given) | 100 (≈ 197 µM) |  | 25 (≈ 49.2 µM) | 50 (≈ 98.3 µM) | 50 (≈ 98.3 µM) | 50 (≈ 98.3 µM) | 200 (≈ 393 µM) | 200 (≈ 393 µM) | 100 (≈ 197 µM) | 100 (≈ 197 µM) |  | inactive |  | 
CC(=O)N(C1=NN(C(C)=O)C2(S1)C1CCCC2C(c2ccccc2Cl)NC1c1ccccc1Cl)c1ccccc1 (stereo not given) | 100 (≈ 168 µM) | 100 (≈ 168 µM) | 6.25 (≈ 10.5 µM) | 12.5 (≈ 21.1 µM) | 25 (≈ 42.1 µM) | 50 (≈ 84.2 µM) | 50 (≈ 84.2 µM) | 100 (≈ 168 µM) | 12.5 (≈ 21.1 µM) | 25 (≈ 42.1 µM) |  |  |  | 
CCC(=O)N(C1=NN(C(=O)CC)C2(S1)C1CCCC2C(c2ccccc2Cl)NC1c1ccccc1Cl)c1ccccc1 (stereo not given) | 25 (≈ 40.2 µM) | 25 (≈ 40.2 µM) | 50 (≈ 80.4 µM) | 50 (≈ 80.4 µM) | 100 (≈ 161 µM) | 200 (≈ 322 µM) | 50 (≈ 80.4 µM) | 50 (≈ 80.4 µM) | 50 (≈ 80.4 µM) | 6.25 (≈ 10.1 µM) |  |  |  | 
CCC(=O)NC1=NN(C(=O)CC)C2(S1)C1CCCC2C(c2ccccc2Cl)NC1c1ccccc1Cl (stereo not given) | 25 (≈ 45.8 µM) | 25 (≈ 45.8 µM) | 12.5 (≈ 22.9 µM) | 12.5 (≈ 22.9 µM) | 100 (≈ 183 µM) | 50 (≈ 91.7 µM) | 50 (≈ 91.7 µM) | 50 (≈ 91.7 µM) | 12.5 (≈ 22.9 µM) | 50 (≈ 91.7 µM) |  |  |  | 
CC(=O)N(C1=NN(C(C)=O)C2(S1)C1CCCC2C(c2ccc(Cl)cc2)N(C(C)=O)C1c1ccc(Cl)cc1)c1ccccc1 (stereo not given) | 50 (≈ 78.7 µM) | 12.5 (≈ 19.7 µM) | 100 (≈ 157 µM) | 25 (≈ 39.3 µM) | 12.5 (≈ 19.7 µM) | 50 (≈ 78.7 µM) | 25 (≈ 39.3 µM) | 200 (≈ 315 µM) |  | 12.5 (≈ 19.7 µM) | inactive |  |  | 
CCC(=O)NC1=NN(C(=O)CC)C2(S1)C1CCCC2C(c2cccc(OC)c2)N(C(=O)CC)C1c1cccc(OC)c1 (stereo not given) |  | 200 (≈ 337 µM) | 25 (≈ 42.2 µM) | 50 (≈ 84.4 µM) | 50 (≈ 84.4 µM) | 200 (≈ 337 µM) | 50 (≈ 84.4 µM) | 25 (≈ 42.2 µM) |  | 100 (≈ 169 µM) | inactive |  | inactive | 
CC(=O)NC1=NN(C(C)=O)C2(S1)C1CCCC2C(c2ccccc2Cl)NC1c1ccccc1Cl (stereo not given) | 25 (≈ 48.3 µM) | 12.5 (≈ 24.2 µM) | 12.5 (≈ 24.2 µM) | 12.5 (≈ 24.2 µM) | 12.5 (≈ 24.2 µM) | 50 (≈ 96.6 µM) | 12.5 (≈ 24.2 µM) | 12.5 (≈ 24.2 µM) |  | 12.5 (≈ 24.2 µM) | inactive |  |  | 
CCC(=O)NC1=NN(C(=O)CC)C2(S1)C1CCCC2C(c2ccc(OC)cc2)N(C(=O)CC)C1c1ccc(OC)cc1 (stereo not given) | 25 (≈ 42.2 µM) | 25 (≈ 42.2 µM) | 25 (≈ 42.2 µM) |  | 100 (≈ 169 µM) | 50 (≈ 84.4 µM) | 50 (≈ 84.4 µM) | 100 (≈ 169 µM) | 25 (≈ 42.2 µM) | 25 (≈ 42.2 µM) |  |  |  | inactive
CCC(=O)NC1=NN(C(=O)CC)C2(S1)C1CCCC2C(c2ccc(C)cc2)NC1c1ccc(C)cc1 (stereo not given) | 25 (≈ 49.5 µM) | 50 (≈ 99.1 µM) | 25 (≈ 49.5 µM) | 100 (≈ 198 µM) | 50 (≈ 99.1 µM) | 25 (≈ 49.5 µM) | 25 (≈ 49.5 µM) | 200 (≈ 396 µM) | 100 (≈ 198 µM) | 50 (≈ 99.1 µM) |  |  |  | 
CN[C@@H]1[C@H](O[C@H]2[C@H](O[C@H]3[C@H](O)[C@@H](O)[C@H](N=C(N)N)[C@@H](O)[C@@H]3N=C(N)N)O[C@@H](C)[C@]2(O)C=O)O[C@@H](CO)[C@H](O)[C@H]1O [STREPTOMYCIN] | 25 (≈ 43 µM) | 50 (≈ 86 µM) |  | 12.5 (≈ 21.5 µM) |  |  | 12.5 (≈ 21.5 µM) |  |  | 50 (≈ 86 µM) |  |  |  | 
CC(=O)NC1=NN(C(C)=O)C2(S1)C1CCCC2C(c2ccccc2)N(C(C)=O)C1c1ccccc1 (stereo not given) | 100 (≈ 204 µM) | 25 (≈ 51 µM) | 100 (≈ 204 µM) | 100 (≈ 204 µM) | 50 (≈ 102 µM) | 50 (≈ 102 µM) | 50 (≈ 102 µM) | 100 (≈ 204 µM) | 25 (≈ 51 µM) | 12.5 (≈ 25.5 µM) |  |  |  | 
CC(=O)NC1=NN(C(C)=O)C2(S1)C1CCCC2C(c2ccc(F)cc2)NC1c1ccc(F)cc1 (stereo not given) | 12.5 (≈ 25.8 µM) | 6.25 (≈ 12.9 µM) | 6.25 (≈ 12.9 µM) | 6.25 (≈ 12.9 µM) | 50 (≈ 103 µM) | 12.5 (≈ 25.8 µM) | 12.5 (≈ 25.8 µM) | 6.25 (≈ 12.9 µM) | 6.25 (≈ 12.9 µM) | 50 (≈ 103 µM) |  |  |  | 
CC(=O)NC1=NN(C(C)=O)C2(S1)C1CCCC2C(c2cccc(F)c2)NC1c1cccc(F)c1 (stereo not given) | 6.25 (≈ 12.9 µM) | 6.25 (≈ 12.9 µM) | 25 (≈ 51.6 µM) | 25 (≈ 51.6 µM) | 12.5 (≈ 25.8 µM) | 25 (≈ 51.6 µM) | 6.25 (≈ 12.9 µM) | 6.25 (≈ 12.9 µM) | 25 (≈ 51.6 µM) | 50 (≈ 103 µM) |  |  |  | 
CCC(=O)NC1=NN(C(=O)CC)C2(S1)C1CCCC2C(c2ccccc2)N(C(=O)CC)C1c1ccccc1 (stereo not given) | 50 (≈ 93.9 µM) | 25 (≈ 46.9 µM) | 50 (≈ 93.9 µM) | 50 (≈ 93.9 µM) | 12.5 (≈ 23.5 µM) | 6.25 (≈ 11.7 µM) | 50 (≈ 93.9 µM) | 12.5 (≈ 23.5 µM) | 50 (≈ 93.9 µM) | 12.5 (≈ 23.5 µM) |  |  |  | 
CC(=O)NC1=NN(C(C)=O)C2(S1)C1CCCC2C(c2ccc(Cl)cc2)NC1c1ccc(Cl)cc1 (stereo not given) | 50 (≈ 96.6 µM) | 25 (≈ 48.3 µM) | 25 (≈ 48.3 µM) |  | 200 (≈ 386 µM) | 6.25 (≈ 12.1 µM) | 12.5 (≈ 24.2 µM) | 50 (≈ 96.6 µM) | 25 (≈ 48.3 µM) | 25 (≈ 48.3 µM) |  |  |  | inactive
CCC(=O)NC1=NN(C(=O)CC)C2(S1)C1CCCC2C(c2ccc(Cl)cc2)NC1c1ccc(Cl)cc1 (stereo not given) | 100 (≈ 183 µM) | 12.5 (≈ 22.9 µM) | 12.5 (≈ 22.9 µM) | 12.5 (≈ 22.9 µM) | 12.5 (≈ 22.9 µM) | 25 (≈ 45.8 µM) | 25 (≈ 45.8 µM) | 50 (≈ 91.7 µM) | 12.5 (≈ 22.9 µM) | 200 (≈ 367 µM) |  |  |  | 

Source: ChEMBL document CHEMBL1268977, “Efficient synthesis, spectral analysis and antimicrobial studies of nitrogen and sulfur containing spiro heterocycles from 2,4-diaryl-3-azabicyclo[3.3.1]nonan-9-ones” (2010)
